The values below come from PubChem BioAssay AID254 (DTP/NCI, 2004).

The assay concerns L1210 leukemia iv in BDF1 mice, survival T/C. Put plainly: NCI In Vivo Anticancer Drug Screen. Data for tumor model L1210 Leukemia (intravenous) in B6D2F1 (BDF1) mice. Conditions: endpoint: mean survival time, higher = longer survival. The protocol:
The antitumor activity of compounds was measured in mice bearing transplantable tumors. Survival or tumor size were measured and the results are expressed as the measurement made in the treated group (T) divided by the measurement made in the vehicle treated control group (C). The tumor model used in this assay is L1210 Leukemia (intravenous) in B6D2F1 (BDF1) mice

The mark [1] stands for this setting: dose: 75.0 mg/kg/injection, schedule: Q01DX001 (ip), vehicle: saline.

Structures are written as SMILES. Where “and” joins values, the source holds several entries; their conditions need not be identical. Identical values can stand only once. Toxic doses and inconclusive results are not listed.

Consider `O=P1(N(CCCl)CCCl)NCCCO1` (stereo not given), for which the T/C is 106 % of control and 109 % of control (dose: 28.0 mg/kg/injection, schedule: Q01DX001 (ip), vehicle: saline); 155 % of control and 165 % of control (dose: 60.0 mg/kg/injection, schedule: Q01DX001 (ip), vehicle: saline); 169 % of control (dose: 64.0 mg/kg/injection, schedule: Q01DX001 (ip), vehicle: saline); 154 % of control and 164 % of control and 171 % of control under setting [1]; 158 % of control and 165 % of control (dose: 80.0 mg/kg/injection, schedule: Q01DX001 (ip), vehicle: saline); 206 % of control (dose: 80.0 mg/kg/injection, schedule: Q04DX004 (ip), vehicle: saline). Besides, the T/C is, setting by setting: (dose: 83.0 mg/kg/injection, schedule: Q01DX001 (ip), vehicle: saline) 170 % of control; (dose: 118.0 mg/kg/injection, schedule: Q01DX001 (ip), vehicle: saline) 162 % of control and 202 % of control; (dose: 120.0 mg/kg/injection, schedule: Q04DX004 (ip), vehicle: saline) 285 % of control; (dose: 225.0 mg/kg/injection, schedule: Q01DX001 (ip), vehicle: saline) 390 % of control and 290 % of control and 304 % of control; (dose: 234.0 mg/kg/injection, schedule: Q01DX001 (ip), vehicle: saline) 522 % of control and 302 % of control; (dose: 468.0 mg/kg/injection, schedule: Q01DX001 (ip), vehicle: saline) 500 % of control.

For the compound `CC(=O)OC1CCC(NC(=O)N(CCF)N=O)CC1` (stereo not given), the T/C (dose: 16.0 mg/kg/injection, schedule: Q01DX001 (ip), vehicle: other) is 175 % of control; the T/C (dose: 24.0 mg/kg/injection, schedule: Q01DX001 (ip), vehicle: other) is 248 % of control; the T/C (dose: 32.0 mg/kg/injection, schedule: Q01DX001 (oral), vehicle: other) is 441 % of control; the T/C (dose: 36.0 mg/kg/injection, schedule: Q01DX001 (ip), vehicle: other) was 473 % of control.

`NC(=S)N/N=C/c1ccccn1`: the T/C is, setting by setting: (dose: 5.0 mg/kg/injection, schedule: Q01HX008 (ip), vehicle: other) 105 % of control; (dose: 5.0 mg/kg/injection, schedule: Q03HX008 (ip), vehicle: other) 166 % of control; (dose: 8.0 mg/kg/injection, schedule: Q01DX008 (ip), vehicle: other) 176 % of control; (dose: 8.0 mg/kg/injection, schedule: Q03HX008 (ip), vehicle: other) 208 % of control; (dose: 8.0 mg/kg/injection, schedule: Q06HX008 (ip), vehicle: other) 176 % of control; (dose: 8.0 mg/kg/injection, schedule: Q12HX008 (ip), vehicle: other) 200 % of control. The T/C was 111 % of control (dose: 22.0 mg/kg/injection, schedule: Q01DX001 (ip), vehicle: other) and 110 % of control (dose: 33.0 mg/kg/injection, schedule: Q01DX001 (ip), vehicle: other).

For `O=NN(CCCl)C(=O)NC1CCCC1`, the T/C reads like this: (dose: 9.0 mg/kg/injection, schedule: Q01DX001 (ip), vehicle: saline) 106 % of control and 100 % of control; (dose: 19.0 mg/kg/injection, schedule: Q01DX001 (ip), vehicle: saline) 114 % of control and 119 % of control; (dose: 38.0 mg/kg/injection, schedule: Q01DX001 (ip), vehicle: saline) 160 % of control and 182 % of control; under setting [1], 174 % of control and 202 % of control; (dose: 150.0 mg/kg/injection, schedule: Q01DX001 (ip), vehicle: saline) 212 % of control and 265 % of control.

Regarding `COc1cccc2c1C(=O)c1c(O)c3c(c(O)c1C2=O)CC(O)(C(=O)CO)CC3OC1CC(N)C(O)C(C)O1` (stereo not given), the T/C by setting is: (dose: 0.75 mg/kg/injection, schedule: Q01DX005 (iv), vehicle: saline) 104 % of control; (dose: 1.5 mg/kg/injection, schedule: Q01DX005 (iv), vehicle: saline) 103 % of control; (dose: 3.0 mg/kg/injection, schedule: Q01DX005 (iv), vehicle: saline) 117 % of control; (dose: 4.0 mg/kg/injection, schedule: Q01DX005 (iv), vehicle: saline) 105 % of control; (dose: 5.0 mg/kg/injection, schedule: Q01DX005 (iv), vehicle: saline) 89 % of control; (dose: 6.0 mg/kg/injection, schedule: Q01DX005 (iv), vehicle: saline) 97 % of control. In addition, the T/C reads like this: (dose: 7.0 mg/kg/injection, schedule: Q01DX005 (iv), vehicle: saline) 96 % of control; (dose: 8.0 mg/kg/injection, schedule: Q01DX005 (iv), vehicle: saline) 90 % of control.

With `O=NN(CCCl)C(=O)NC1CCCCC1`, the T/C is, setting by setting: (dose: 5.1 mg/kg/injection, schedule: Q01DX001 (ip), vehicle: carboxymethylcellulose (CMC)) 102 % of control; (dose: 10.0 mg/kg/injection, schedule: Q04DX004 (ip), vehicle: carboxymethylcellulose (CMC)) 124 % of control; (dose: 15.0 mg/kg/injection, schedule: Q01DX001 (ip), vehicle: Klucel (hydroxypropylcellulose) (HPC)) 170 % of control; (dose: 16.0 mg/kg/injection, schedule: Q04DX004 (ip), vehicle: carboxymethylcellulose (CMC)) 160 % of control; (dose: 16.6 mg/kg/injection, schedule: Q01DX001 (ip), vehicle: carboxymethylcellulose (CMC)) 163 % of control and 174 % of control; (dose: 17.0 mg/kg/injection, schedule: Q01DX001 (ip), vehicle: carboxymethylcellulose (CMC)) 176 % of control. Besides, the T/C was 177 % of control (dose: 18.0 mg/kg/injection, schedule: Q01DX001 (ip), vehicle: Klucel (hydroxypropylcellulose) (HPC)); 218 % of control and 241 % of control (dose: 21.0 mg/kg/injection, schedule: Q01DX001 (ip), vehicle: carboxymethylcellulose (CMC)); 227 % of control (dose: 22.0 mg/kg/injection, schedule: Q01DX001 (ip), vehicle: Klucel (hydroxypropylcellulose) (HPC)); 192 % of control and 225 % of control (dose: 22.0 mg/kg/injection, schedule: Q01DX001 (ip), vehicle: carboxymethylcellulose (CMC)); 360 % of control (dose: 22.0 mg/kg/injection, schedule: Q04DX004 (ip), vehicle: carboxymethylcellulose (CMC)); 161 % of control (dose: 27.0 mg/kg/injection, schedule: Q01DX001 (ip), vehicle: Klucel (hydroxypropylcellulose) (HPC)). The T/C was 346 % of control (dose: 30.0 mg/kg/injection, schedule: Q01DX001 (ip), vehicle: carboxymethylcellulose (CMC)); 709 % of control (dose: 33.0 mg/kg/injection, schedule: Q04DX004 (ip), vehicle: carboxymethylcellulose (CMC)); 574 % of control (dose: 33.5 mg/kg/injection, schedule: Q01DX001 (ip), vehicle: Klucel (hydroxypropylcellulose) (HPC)); 534 % of control and 560 % of control and 606 % of control (dose: 37.5 mg/kg/injection, schedule: Q01DX001 (ip), vehicle: carboxymethylcellulose (CMC)); 222 % of control (dose: 40.0 mg/kg/injection, schedule: Q01DX001 (ip), vehicle: Klucel (hydroxypropylcellulose) (HPC)); 368 % of control (dose: 40.0 mg/kg/injection, schedule: Q01DX001 (ip), vehicle: carboxymethylcellulose (CMC)). Moreover, the T/C was 438 % of control (dose: 42.0 mg/kg/injection, schedule: Q01DX001 (ip), vehicle: Klucel (hydroxypropylcellulose) (HPC)); 633 % of control and 707 % of control (dose: 43.0 mg/kg/injection, schedule: Q01DX001 (ip), vehicle: carboxymethylcellulose (CMC)); 407 % of control (dose: 50.0 mg/kg/injection, schedule: Q01DX001 (ip), vehicle: Klucel (hydroxypropylcellulose) (HPC)); 464 % of control (dose: 56.0 mg/kg/injection, schedule: Q01DX001 (ip), vehicle: Klucel (hydroxypropylcellulose) (HPC)); 336 % of control (dose: 60.0 mg/kg/injection, schedule: Q01DX001 (ip), vehicle: Klucel (hydroxypropylcellulose) (HPC)); 652 % of control and 662 % of control and 775 % of control (dose: 62.5 mg/kg/injection, schedule: Q01DX001 (ip), vehicle: carboxymethylcellulose (CMC)). The T/C (dose: 70.0 mg/kg/injection, schedule: Q01DX001 (ip), vehicle: Klucel (hydroxypropylcellulose) (HPC)) was 519 % of control; the T/C (dose: 75.0 mg/kg/injection, schedule: Q01DX001 (ip), vehicle: carboxymethylcellulose (CMC)) was 826 % of control; the T/C (dose: 86.0 mg/kg/injection, schedule: Q01DX001 (ip), vehicle: carboxymethylcellulose (CMC)) is 242 % of control and 297 % of control; the T/C (dose: 90.0 mg/kg/injection, schedule: Q01DX001 (ip), vehicle: Klucel (hydroxypropylcellulose) (HPC)) is 522 % of control.
